In patent US5110935A, “New compounds which are active against the tissue forms of malaria and method of preparation” (Ire-Celltarg, S.A., priority 1988, dated 1992):
Where “and” joins values, the source holds several entries; their conditions need not be identical. Equal entries are not always repeated.

Legend:
Plasmodium berghei [1] = assay: Causal prophylactic activity on OF1 mice infected with Plasmodium berghei; type: in vivo, P. berghei (ANKA), in Swiss OF1 mice; conditions: for ED50 / ED100 / minimal effective dose: Plasmodium berghei, iv, 3 h; for ED50 / ED100 / minimal effective dose / CPD50, causal prophylactic dose curing 50% of the infected and treated animals / ED100, totally curative dose: single i.v. three hours after sporozoites, mg PQ diphosphate equivalent/kg; for ED50: read-out: CPD50, causal prophylactic dose curing 50% of the infected and treated animals; for ED100: read-out: ED100, totally curative dose; for minimal effective dose: read-out: Minimal effective dose (MED); for Activity relative to PQ, fold as active: model of malaria in mice; for CPD50, fold lower than for PQ: mouse, in vivo; for PQ index: ratio CPD50 of PQ/CPD50 of the compound
Procedure: Primaquine and its derivatives are tested in the model of malaria in rodents employing the infection of mice with Plasmodium berghei, the sporozoites originating from infected Anopheles stephensi mosquitoes. This model, developed by Most H., Herman R. & Schoenfeld C. (1967), Am. J. Trop. med. Hyg. 16, 572-575, enables the casual prophylatic (tissue schizonticidal) activity of new therapeutic compounds to be determined.
The procedure used is that derived from Most H. & Montuori W.A. (1975), Am. J. Trop. Med. Hyg. 24, 179-189. It involves the system P. berghei (ANKA)/Anopheles stephensi/Swiss OF1 mice. The ANKA strain of P. b. berghei is maintained cyclically on Anopheles stephensi. The Swiss OF1 strain mouse is especially sensitive to P. b. berghei, which produces an invariably fatal infection.
The legs, wings and abdomen are removed from female mosquitoes (80 to 100 individuals per preparation) and the latter are then homogenized at 4° C. in MEM medium (GIBCO) containing 10% of fetal calf serum using a glass Potter. The sporozoite suspension is then purified from the mosquito debris by two successive centrifugations (2 min at 50 g and 5 min at 200 g) and the collected supernatant is stored at 4° C. After counting in a Petroff-Hausser chamber, the number of parasites is adjusted by dilution with the same cold medium to a density of 2×10^5 sporozoites/ml.
The causal prophylactic activity of the compounds, that is to say the dose enabling 50% of the infected animals to be cured (CPD50) is obtained by analysis of the logits of the response (expressed as a % LTS) as a function of the dose (mg PQ/kg).
A volume of 0.5 ml of the suspension containing 10^5 sporozoites is injected i.v. into female Swiss OF1 mice weighing 20 to 25 g, used for the therapeutic tests. 1.2. Chemotherapeutic treatments
Groups of 20 to 25 mice, infected as described above, are treated with a single intravenous injection of primaquine diphosphate (PQ) or of its two derivatives in hydrochloride form, three hours after inoculation of the sporozoites. The volume injected is adjusted according to the weight of the mouse, on the basis of 0.25 ml for a weight of 25 g. The compounds are diluted in phosphatebuffered saline (PBS), pH 7.0, and the pH is adjusted to 7.0. Infected but untreated mice (5 per group), receive the buffer alone and serve to monitor the infectivity of the sporozoites.
The experimental mice are kept for a period of 50 days. The development of the parasitemia is followed by daily examination of blood smears stained for 60 min with 5% Giemsa in Sorensen buffer at pH 7.2, from day 5 up to day 15. The number of infected animals can thus be determined.
(§1) The animals infected using P. berchei sporozoites are treated three hours later with a single i.v. injection of the compounds. This test enables the casual prophylactic activity of the compounds, that is the dose enabling 50% of the infected animals to be cured (CPD50), to be defined. The dose is always expressed as mg of PQ diphosphate per kg.
as §1, with “berghei” for “berchei”

[2] = Acute toxicity in mice after a single i.v. administration; type: in vivo; conditions: mouse, in vivo, iv, single i.v., mg PQ diphosphate equivalent/kg; for MTD: weight loss not exceeding 5% during 5 days, read-out: Maximum tolerated dose (MTD)
Procedure: (§2) The acute toxicity in terms of a single administered dose is determined on female Swiss OF1 mice weighing 22 to 25 g. A series of dilutions of each compound is injected intravenously into groups of 10 mice (0.1 ml per 10 g of weight).
(§3) The lethal dose for 50% of mice (LD50) is determined by linear regression of the logits of the percentage of surviving animals as a function of the logarithm of the dose injected (in mg PQ diphosphate equivalent/kg) (Logit Weighted Transformation, Berkson J., 1953; J. Am. Stat. Assoc. 48, 565-599).
(§4) ^a : The products are administered i.v. to groups of 10 female Swiss
(§5) ^b : Maximum tolerated dose (MTD), defined as the highest dose
(§6) The acute toxicity in terms of a single administered dose is determined under the same conditions and according the protocol of Example 3.

female Swiss OF1 mice = assay: as above; type: in vivo; conditions: for Fold less toxic than PQ: mice, i.v.; for LD50 / Maximum tolerated dose (MTD): single i.v., mg PQ diphosphate equivalent/kg; for Maximum tolerated dose (MTD): weight loss not exceeding 5% during 5 days
Procedure: as §2, §3, §4, §5, §6

Plasmodium berghei [3] = assay: Therapeutic index in mice; type: in vivo, P. berghei; conditions: mice, i.v.
Source text: The therapeutic index is defined as the ratio of the toxicity, expressed as LD50, to the therapeutic activity, expressed as CPD50, in mice.
^b : The therapeutic index (TI) is the ratio of LD50 to […]

Structure (SMILES)	ED50 (Plasmodium berghei [1]) [mg/kg]	ED100 (Plasmodium berghei [1]) [mg/kg]	minimal effective dose (Plasmodium berghei [1]) [mg/kg]	Activity relative to PQ, fold as active (Plasmodium berghei [1])	CPD50, fold lower than for PQ (Plasmodium berghei [1])	PQ index (Plasmodium berghei [1])	CPD50, causal prophylactic dose curing 50% of the infected and treated animals (Plasmodium berghei [1])	ED100, totally curative dose (Plasmodium berghei [1])	LD50 [2] [mg/kg]	MTD [2] [mg/kg]	Fold less toxic than PQ (female Swiss OF1 mice)	LD50 (female Swiss OF1 mice)	Maximum tolerated dose (MTD) (female Swiss OF1 mice)	Therapeutic index, fold higher than that of PQ (Plasmodium berghei [3])
COc1cc(NC(C)CCCNC(=O)[C@@H](N)CC(=O)O)c2ncccc2c1 (stereo partly drawn) [ASP-PQ, N-(α-L-aspartyl)-PQ]	11.6	31	4.4	1.6 -fold	1.6 -fold	1.62	11.6 (0.9) mg/kg	31.1 (9.2) mg/kg	165	107	at least 5 -fold	165.5 (5.4) mg/kg and 165 (5.4) mg/kg	107.2 (14.2) mg/kg	at least 8 -fold
COc1cc(NC(C)CCCNC(=O)C[C@H](N)C(=O)O)c2ncccc2c1 (stereo partly drawn) [βASP-PQ, N-(β-L-aspartyl)-PQ]	11.2	31	4.1	at least 1.6 -fold	1.6 -fold	1.68	11.2 (0.7) mg/kg	30.6 (5.7) mg/kg	164	109	at least 5 -fold	164.4 (6.2) mg/kg and 164 (6.2) mg/kg	109.1 (13.1) mg/kg	8 -fold
